Earlier results, collected in US20050282843A1, “Therapeutic applications of 2-substituted 4-heteroarylpyrimidines” (priority 2002, published 2005).

Test system: GSK3
Settings: known CDK inhibitors; cited from earlier work

CC[C@H](CO)Nc1nc(NCc2ccccc2)c2ncn(C(C)C)c2n1 [roscovitine]
inhibition of GSK3 (literature statement): do not inhibit GSK3
